Experimental data as given in patent EP1044015B1, “FORMULATIONS FOR AMYLIN AGONIST PEPTIDES WITH INSULIN” (AMYLIN PHARMACEUTICALS, INC., priority 1998, dated 2008).

Experiment: Adsorption onto glass container
Assay type: physicochemical
Conditions: liquid form
From the text: However, with regard to amylin agonists or amylins which do have such a tendency, a surfactant should be used in their formulation which formulations should then be lyophilized. Surfactants frequently cause denaturation of protein, both of hydrophobic disruption and by salt bridge separation. Relatively low concentrations of surfactant exert a potent denaturing activity, because of the strong interactions between surfactant moieties and the reactive sites on proteins. However, judicious use of this interaction can stabilize proteins against interfacial or surface denaturation. Surfactants which could further stabilize the peptide may optionally be present in the range of about 0.001 to 0.3% (w/v) of the total formulation and include polysorbate 80 (i.e., polyoxyethylene(20) sorbitan monooleate), CHAPS° (i.e., 3-[(3-cholamidopropyl) dimethylammonio] 1-propanesulfonate), Brij° (e.g., Brij 35, which is (polyoxyethylene (23) lauryl ether), poloxamer, or another non-ionic surfactant.

In the case of ^25,28,29Pro-h- amylin [Pramlintide], the “tendency to adsorb onto the glass” value was “does not have a tendency to adsorb onto the glass”.
